Paper PMC4107924, “Structure and function study of the complex that synthesizes S-adenosylmethionine” (IUCrJ, 2014)

Experiments:
Assay type in all cases: binding
MAT(α2)4(βV2)2 [1] = target: T1, MAT(α2)4(βV2)2 (Homo sapiens, UniProt P31153); assay: X-ray crystal structure, […] Å; conditions: crystal co-crystallized and soaked with AMPPNP and methionine; SAMe also bound; Mg
T1 construct: gene MAT2A; recombinant in E. coli BL21(DE3), assembled in vitro; His tags cut (TEV for MATα2, thrombin for MATβV2); 258 kDa, 4:2 complex; with Methionine adenosyltransferase 2 subunit beta

MAT(α2)4(βV2)2 [2] = target: T1, MAT(α2)4(βV2)2; assay: X-ray crystal structure, […] Å; conditions: crystal co-crystallized and soaked with ATP only; ADO and PO4 at active site; Mg
MAT(α2)4(βV2)2 [3] = target: T1, MAT(α2)4(βV2)2; assay: X-ray crystal structure, […] Å; conditions: active site at MATα2 dimer interface; Mg; two of four sites occupied; SAMe also in 4ndn
MATβV1 = target: T2, MATβV1 (Homo sapiens, UniProt Q9NZL9); assay: ITC; conditions: read-out: NADP → MATβV1
T2 construct: gene MAT2B; recombinant in E. coli BL21(HC41), HIS-parallel vector; His tag cut with TEV protease; free subunit

MATβV2 = target: T3, MATβV2 (Homo sapiens, UniProt Q9NZL9); assay: ITC; conditions: read-out: NADP → MATβV2
T3 construct: gene MAT2B; recombinant in E. coli BL21(DE3), pET-28a(+); His tag cut with thrombin; free subunit
T3 sequence (Q9NZL9 1-323 isoform Q9NZL9-2): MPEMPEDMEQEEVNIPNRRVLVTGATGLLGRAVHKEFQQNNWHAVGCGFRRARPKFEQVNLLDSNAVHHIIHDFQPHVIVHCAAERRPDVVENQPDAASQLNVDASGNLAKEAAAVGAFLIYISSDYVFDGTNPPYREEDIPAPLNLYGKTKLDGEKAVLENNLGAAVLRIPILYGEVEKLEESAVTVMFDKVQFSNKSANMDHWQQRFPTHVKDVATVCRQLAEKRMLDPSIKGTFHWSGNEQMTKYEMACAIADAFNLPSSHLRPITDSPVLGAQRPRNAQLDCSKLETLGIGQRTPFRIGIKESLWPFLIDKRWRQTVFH

T1 sequence (P31153 whole entry): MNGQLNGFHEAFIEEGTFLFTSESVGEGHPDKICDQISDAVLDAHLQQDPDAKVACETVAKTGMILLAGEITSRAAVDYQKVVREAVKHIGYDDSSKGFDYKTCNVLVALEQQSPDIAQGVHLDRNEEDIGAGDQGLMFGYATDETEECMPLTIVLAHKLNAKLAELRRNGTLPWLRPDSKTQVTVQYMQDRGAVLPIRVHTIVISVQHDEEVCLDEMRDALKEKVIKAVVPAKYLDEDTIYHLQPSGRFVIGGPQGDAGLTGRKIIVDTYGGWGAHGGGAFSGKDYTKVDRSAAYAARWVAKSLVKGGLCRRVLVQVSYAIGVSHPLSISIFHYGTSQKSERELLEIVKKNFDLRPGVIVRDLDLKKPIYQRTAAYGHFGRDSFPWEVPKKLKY
T1 sequence (Q9NZL9 21-334 partner limits assumed): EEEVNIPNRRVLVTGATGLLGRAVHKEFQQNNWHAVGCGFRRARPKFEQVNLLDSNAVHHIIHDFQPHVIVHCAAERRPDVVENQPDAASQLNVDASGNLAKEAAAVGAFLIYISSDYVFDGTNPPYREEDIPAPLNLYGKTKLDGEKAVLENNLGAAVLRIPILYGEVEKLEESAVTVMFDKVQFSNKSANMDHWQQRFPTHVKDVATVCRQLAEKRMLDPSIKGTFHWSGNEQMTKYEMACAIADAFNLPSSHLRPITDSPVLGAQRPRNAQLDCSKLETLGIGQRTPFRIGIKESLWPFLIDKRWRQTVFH
T2 sequence (Q9NZL9 whole entry): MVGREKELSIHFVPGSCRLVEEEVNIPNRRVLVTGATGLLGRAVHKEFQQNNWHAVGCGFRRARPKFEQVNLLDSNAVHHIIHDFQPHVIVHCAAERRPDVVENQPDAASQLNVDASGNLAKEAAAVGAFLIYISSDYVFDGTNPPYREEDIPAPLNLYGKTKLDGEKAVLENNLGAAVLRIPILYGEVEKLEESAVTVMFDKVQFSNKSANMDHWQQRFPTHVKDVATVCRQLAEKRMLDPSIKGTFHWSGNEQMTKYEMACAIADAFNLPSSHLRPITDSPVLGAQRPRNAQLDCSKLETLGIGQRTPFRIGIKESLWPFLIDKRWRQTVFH

O=P(O)(O)NP(=O)(O)OP(=O)(O)O [PPNP]
X-ray crystal structure, 2.35 Å (MAT(α2)4(βV2)2 [1]): Crystal co-crystallized and soaked with AMPPNP and methionine shows SAMe and PPNP

Nc1ncnc2c1ncn2[C@@H]1O[C@H](CO)[C@@H](O)[C@H]1O [adenosine]
X-ray crystal structure, 3.3 Å (MAT(α2)4(βV2)2 [2]): shows adenosine molecule (ADO) and PO4 at the active site

C[S+](CC[C@H](N)C(=O)O)C[C@H]1O[C@@H](n2cnc3c(N)ncnc32)[C@H](O)[C@@H]1O (some centres unmarked) [SAMe]
X-ray crystal structure, 2.6 Å (MAT(α2)4(βV2)2 [3]): the presence of SAMe, adenosine (ADO) or PPNP

NC(=O)c1ccc[n+]([C@@H]2O[C@H](COP(=O)(O)OP(=O)(O)OC[C@H]3O[C@@H](n4cnc5c(N)ncnc54)[C@H](OP(=O)(O)O)[C@@H]3O)[C@@H](O)[C@H]2O)c1 [NADP]
Kd (MATβV1): 8.55 µM | Kd (MATβV2): 8.93 µM
